Assay results from US12653894B2, “Degradation of FAK or FAK and ALK by conjugation of FAK and ALK inhibitors with E3 ligase ligands and methods of use” (DANA-FARBER CANCER INSTITUTE, INC., priority 2018, dated 2026).

Biological target: FAK (Homo sapiens, UniProt Q05397)
Experiment: FAK degradation by immunoblot in PA-TU-8988T cells
Type: cell-based
Set-up: endogenous in cells; host or cells: PA-TU-8988T
Details: PA-TU-8988T cells, 4 hours; for inhibition at 0.01 µM / inhibition at 0.1 µM: PaTu 8988t, total FAK protein, vs DMSO; for inhibition at 0.01 µM: 10 nM, read-out: Degradation at 10 nM; for inhibition at 0.1 µM: 100 nM, read-out: Degradation at 100 nM
Description: Immunoblotting for FAK was performed to evaluate changes in protein levels upon FAK degrader treatment. All samples were run with equal total protein content and immunoblotting was performed using antibodies that detect total FAK protein as well as GAPDH or α-Tubulin as a loading control. Fluorescently labelled infrared secondary antibodies that enable detection using an Odyssey® CLx Imager was employed to evaluate protein levels.
FAK degraders were evaluated in immunoblot assays to determine the effective dose required to achieve FAK protein loss. Immunoblots for FAK protein were normalized relative to the loading control and percent degradation was evaluated compared to DMSO treatment.

FAK, sequence (Q05397 whole entry): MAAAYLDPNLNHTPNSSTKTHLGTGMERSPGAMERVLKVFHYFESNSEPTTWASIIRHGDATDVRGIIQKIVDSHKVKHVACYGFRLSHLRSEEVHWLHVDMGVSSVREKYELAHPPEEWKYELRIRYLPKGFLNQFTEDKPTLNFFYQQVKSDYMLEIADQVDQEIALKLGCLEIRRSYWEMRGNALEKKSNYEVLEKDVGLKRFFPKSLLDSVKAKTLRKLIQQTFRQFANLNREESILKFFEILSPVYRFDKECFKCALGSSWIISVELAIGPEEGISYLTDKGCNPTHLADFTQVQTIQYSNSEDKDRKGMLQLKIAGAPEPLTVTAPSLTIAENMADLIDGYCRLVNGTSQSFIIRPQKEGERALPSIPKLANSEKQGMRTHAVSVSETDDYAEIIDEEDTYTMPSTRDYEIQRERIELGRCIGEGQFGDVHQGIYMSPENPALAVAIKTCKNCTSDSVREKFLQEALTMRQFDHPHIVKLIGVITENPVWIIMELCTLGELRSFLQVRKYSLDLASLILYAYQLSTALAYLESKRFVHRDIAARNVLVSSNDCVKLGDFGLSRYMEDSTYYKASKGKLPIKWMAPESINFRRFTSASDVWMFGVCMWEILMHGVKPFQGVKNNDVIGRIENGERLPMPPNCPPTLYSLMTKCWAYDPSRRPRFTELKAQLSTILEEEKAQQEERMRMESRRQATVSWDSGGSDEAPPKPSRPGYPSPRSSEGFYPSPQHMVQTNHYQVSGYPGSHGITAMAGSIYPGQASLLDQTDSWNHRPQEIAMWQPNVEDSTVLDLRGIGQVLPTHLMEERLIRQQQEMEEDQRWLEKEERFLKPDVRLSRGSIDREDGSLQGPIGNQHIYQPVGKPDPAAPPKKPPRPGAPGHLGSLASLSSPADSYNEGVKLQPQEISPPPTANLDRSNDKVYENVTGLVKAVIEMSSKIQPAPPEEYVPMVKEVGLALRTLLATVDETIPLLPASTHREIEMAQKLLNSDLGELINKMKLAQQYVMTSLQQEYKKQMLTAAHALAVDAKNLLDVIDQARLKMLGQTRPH

Row | SMILES | Degradation of FAK protein (in words) (0.1 nM to 1000 nM, immunoblot) | inhibition at 0.01 µM [%] | inhibition at 0.1 µM [%] | Concentration giving modest degradation of FAK protein (immunoblot) [nM] | Concentration at which degradation of FAK protein is evident (immunoblot) [nM] | Concentration of maximal degradation of FAK protein (immunoblot) [nM]
1 | CNC(=O)c1ccccc1Nc1cc(Nc2ccc(N3CCN(CCCCCCNC(=O)COc4cccc5c4C(=O)N(C4CCC(=O)N(C)C4=O)C5=O)CC3)cc2OC)ncc1C(F)(F)F (centres unmarked) [Compound 2, 2-((2-((2-methoxy-4-(4-(6-(2-((2-(1-methyl-2,6-dioxopiperidin-3-yl)-1,3-dioxoisoindolin-4-yl)oxy)acetamido)hexyl)piperazin-1-yl)phenyl)amino)-5-(trifluoromethyl)pyridin-4-yl)amino)-N-methylbenzamide] | did not induce degradation of FAK protein | 0 to 24 | 0 to 24 |  |  | 
2 | CNC(=O)c1ccccc1Nc1cc(Nc2ccc(N3CCN(CCOCCOCCOCCNC(=O)COc4cccc5c4C(=O)N(C4CCC(=O)NC4=O)C5=O)CC3)cc2OC)ncc1C(F)(F)F (centres unmarked) [Compound 3, 2-((2-((4-(4-(1-((2-(2,6-dioxopiperidin-3-yl)-1,3-dioxoisoindolin-4-yl)oxy)-2-oxo-6,9,12-trioxa-3-azatetradecan-14-yl)piperazin-1-yl)-2-methoxyphenyl)amino)-5-(trifluoromethyl)pyridin-4-yl)amino)-N-methylbenzamide] |  | 50 to 69 | 85 to 100 | 100 |  | 
3 | CNC(=O)c1ccccc1Nc1cc(Nc2ccc(N3CCN(CCOCCOCCNC(=O)CNc4cccc5c4C(=O)N(C4CCC(=O)NC4=O)C5=O)CC3)cc2OC)ncc1C(F)(F)F (centres unmarked) [Compound 4, 2-((2-((4-(4-(2-(2-(2-(2-((2-(2,6-dioxopiperidin-3-yl)-1,3-dioxoisoindolin-4-yl)amino)acetamido)ethoxy)ethoxy)ethyl)piperazin-1-yl)-2-methoxyphenyl)amino)-5-(trifluoromethyl)pyridin-4-yl)amino)-N-methylbenzamide] |  | 70 to 84 | 85 to 100 |  | 10 | 100
4 | CNC(=O)c1ccccc1Nc1cc(Nc2ccc(N3CCN(CCCCCCCCNC(=O)CNc4cccc5c4C(=O)N(C4CCC(=O)NC4=O)C5=O)CC3)cc2OC)ncc1C(F)(F)F (centres unmarked) [Compound 5, 2-((2-((4-(4-(8-(2-((2-(2,6-dioxopiperidin-3-yl)-1,3-dioxoisoindolin-4-yl)amino)acetamido)octyl)piperazin-1-yl)-2-methoxyphenyl)amino)-5-(trifluoromethyl)pyridin-4-yl)amino)-N-methylbenzamide] |  |  |  |  | 1 | 10
5 | CNC(=O)c1ccccc1Nc1cc(Nc2ccc(N3CCN(CCCCCCCCNc4cccc5c4C(=O)N(C4CCC(=O)NC4=O)C5=O)CC3)cc2OC)ncc1C(F)(F)F (centres unmarked) [Compound 6, 2-((2-((4-(4-(8-((2-(2,6-dioxopiperidin-3-yl)-1,3-dioxoisoindolin-4-yl)amino)octyl)piperazin-1-yl)-2-methoxyphenyl)amino)-5-(trifluoromethyl)pyridin-4-yl)amino)-N-methylbenzamide] |  | 85 to 100 | 85 to 100 |  | 10 | 100
6 | CS(=O)(=O)c1cccc(CNc2nc(Nc3ccc(C(=O)NCCCCCCCCNC(=O)COc4cccc5c4C(=O)N(C4CCC(=O)NC4=O)C5=O)cc3)ncc2C(F)(F)F)c1 (centres unmarked) [Compound 7, N-(8-(2-((2-(2,6-dioxopiperidin-3-yl)-1,3-dioxoisoindolin-4-yl)oxy)acetamido)octyl)-4-((4-((3-(methylsulfonyl)benzyl)amino)-5-(trifluoromethyl)pyrimidin-2-yl)amino)benzamide] |  | 25 to 49 | 85 to 100 |  | 10 | 100
